In PubChem BioAssay (NCI):
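Assay format: 96-well plates, 48-hour exposure. TGI is the concentration that stops growth completely.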

Legend:
Assay in all cases: NCI tumour cell line growth inhibition, 48 h
[1] = system: TK-10 renal
[2] = system: COLO 205 colon
[3] = system: IGROV1 ovarian
[4] = system: MOLT-4 leukemia
[5] = system: SK-MEL-5 melanoma
[6] = system: HCT-116 colon
[7] = system: KM20L2 colon
[8] = system: HOP-62 NSCLC
[9] = system: ACHN renal
[10] = system: RXF 393 renal
[11] = system: A549 NSCLC
[12] = system: SF-268 CNS
[13] = system: OVCAR-5 ovarian
[14] = system: NCI-H522 lung
[15] = system: HOP-18 NSCLC
[16] = system: P388/ADR leukemia
[17] = system: OVCAR-3 ovarian
[18] = system: MDA-MB-231 breast
[19] = system: MCF7 breast
[20] = system: NCI-H226 lung
[21] = system: DU-145 prostate
[22] = system: CCRF-CEM leukemia
[23] = system: SN12C renal
[24] = system: PC-3 prostate
[25] = system: NCI-H23 lung
[26] = system: EKVX NSCLC
[27] = system: P388 leukemia
[28] = system: SNB-75 CNS
[29] = system: HOP-92 NSCLC
[30] = system: LOX IMVI melanoma
[31] = system: MDA-MB-435
[32] = system: UACC-257 melanoma
[33] = system: SR leukemia
[34] = system: MALME-3M melanoma
[35] = system: MDA-N
[36] = system: HS 578T breast
[37] = system: A498 renal
[38] = system: UO-31 renal
[39] = system: DMS 114 small cell lung
[40] = system: T-47D breast
[41] = system: SNB-78 CNS
[42] = system: HCC-2998 colon
[43] = system: NCI/ADR-RES ovarian
[44] = system: NCI-H460 lung
[45] = system: SK-OV-3 ovarian
[46] = system: SF-295 CNS
[47] = system: KM12 colon
[48] = system: OVCAR-4 ovarian
[49] = system: UACC-62 melanoma
[50] = system: U251 CNS
[51] = system: SW-620 colon
[52] = system: HCT-15 colon
[53] = system: 786-0 renal
[54] = system: SF-539 CNS
[55] = system: K-562 leukemia
[56] = system: HL-60(TB) leukemia
[57] = system: SK-MEL-2 melanoma
[58] = system: SNB-19 CNS
[59] = system: DLD-1 colon
[60] = system: SK-MEL-28 melanoma
[61] = system: XF 498 CNS
[62] = system: OVCAR-8 ovarian
[63] = system: BT-549 breast
[64] = system: HT29 colon
[65] = system: M14 melanoma
[66] = system: CAKI-1 renal
[67] = system: SN12K1 renal

Q: `CC1(C)N=C(N)N=C(N)N1c1ccc(CCCCc2ccc(S(=O)(=O)F)cc2Cl)c(Cl)c1` was tested. Which TGI [1] did it give?
A: 231 µM

Q: What about the TGI [2] of the same molecule?
A: 78 µM

Q: What about the TGI [3] of the same molecule?
A: 106 µM

Q: And the TGI [4]?
A: 10.6 µM

Q: And the TGI [5]?
A: 31.7 µM

Q: What about the TGI [6] of the same molecule?
A: 140 µM

Q: What about the TGI [7] of the same molecule?
A: 163 µM

Q: What about the TGI [8] of the same molecule?
A: 47.2 µM

Q: And the TGI [9]?
A: 142 µM

Q: What about the TGI [10] of the same molecule?
A: 187 µM

Q: What about the TGI [11] of the same molecule?
A: 200 µM

Q: What about the TGI [12] of the same molecule?
A: 29.3 µM

Q: What about the TGI [13] of the same molecule?
A: 198 µM

Q: And the TGI [14]?
A: 31.4 µM

Q: And the TGI [15]?
A: 121 µM

Q: And the TGI [16]?
A: 7.56 µM

Q: And the TGI [17]?
A: 87 µM

Q: What about the TGI [18] of the same molecule?
A: 82.3 µM

Q: And the TGI [19]?
A: 28.7 µM

Q: What about the TGI [20] of the same molecule?
A: 158 µM

Q: What about the TGI [21] of the same molecule?
A: 90.4 µM

Q: And the TGI [22]?
A: 8.28 µM

Q: And the TGI [23]?
A: 90.3 µM

Q: And the TGI [24]?
A: 112 µM

Q: And the TGI [25]?
A: 200 µM

Q: What about the TGI [26] of the same molecule?
A: 161 µM

Q: What about the TGI [27] of the same molecule?
A: 6.36 µM

Q: And the TGI [28]?
A: 54.7 µM

Q: What about the TGI [29] of the same molecule?
A: 48.6 µM

Q: And the TGI [30]?
A: 43.9 µM

Q: What about the TGI [31] of the same molecule?
A: > 500 µM

Q: And the TGI [32]?
A: 64 µM

Q: What about the TGI [33] of the same molecule?
A: > 500 µM

Q: And the TGI [34]?
A: 33.8 µM

Q: And the TGI [35]?
A: 39.5 µM

Q: And the TGI [36]?
A: > 500 µM

Q: And the TGI [37]?
A: 261 µM

Q: What about the TGI [38] of the same molecule?
A: 224 µM

Q: What about the TGI [39] of the same molecule?
A: 16.4 µM

Q: And the TGI [40]?
A: 34.8 µM

Q: And the TGI [41]?
A: 48.6 µM

Q: And the TGI [42]?
A: 67.1 µM

Q: What about the TGI [43] of the same molecule?
A: 347 µM

Q: What about the TGI [44] of the same molecule?
A: 80.8 µM

Q: What about the TGI [45] of the same molecule?
A: 351 µM

Q: What about the TGI [46] of the same molecule?
A: 192 µM

Q: What about the TGI [47] of the same molecule?
A: 9.77 µM

Q: What about the TGI [48] of the same molecule?
A: > 468 µM

Q: And the TGI [49]?
A: 46.9 µM

Q: And the TGI [50]?
A: 53.2 µM

Q: And the TGI [51]?
A: 360 µM

Q: And the TGI [52]?
A: 193 µM

Q: What about the TGI [53] of the same molecule?
A: 76.9 µM

Q: And the TGI [54]?
A: 13.9 µM

Q: And the TGI [55]?
A: 64.3 µM

Q: And the TGI [56]?
A: 11.6 µM

Q: And the TGI [57]?
A: 20.3 µM

Q: What about the TGI [58] of the same molecule?
A: 125 µM

Q: And the TGI [59]?
A: 118 µM

Q: What about the TGI [60] of the same molecule?
A: 13.4 µM

Q: And the TGI [61]?
A: 3 µM

Q: What about the TGI [62] of the same molecule?
A: 261 µM

Q: And the TGI [63]?
A: 14.5 µM

Q: And the TGI [64]?
A: 298 µM

Q: And the TGI [65]?
A: > 382 µM

Q: What about the TGI [66] of the same molecule?
A: 128 µM

Q: What about the TGI [67] of the same molecule?
A: 6.92 µM
